The source of these data is US9770349B2, “Nanoporous stents with enhanced cellular adhesion and reduced neointimal formation” (University of Virginia Patent Foundation, priority 2002, dated 2017).

This series is described as follows: Rapamycin solubility in solvent. It is filed as physicochemical. The conditions noted are these: 100% ethanol, organic solvent or mixture, in ethanol (100% ethanol).

Values after ≈ are worked out from the molar mass of the structure shown.

For the compound `CO[C@H]1C[C@@H]2CC[C@@H](C)[C@@](O)(O2)C(=O)C(=O)N2CCCC[C@H]2C(=O)O[C@H]([C@H](C)C[C@@H]2CC[C@@H](O)[C@H](OC)C2)CC(=O)[C@H](C)/C=C(\C)[C@@H](O)[C@@H](OC)C(=O)[C@H](C)C[C@H](C)/C=C/C=C/C=C/1C` [rapamycin], the solubility was roughly 90 mg/mL (≈ 98.4 mM).
